# Results reported in patent US8614324B2, “Filamin A binding anti-inflammatory and analgesic” (priority 2008, dated 2013).
# Assays:
# [1] = test system: IL-1β release from primary human astrocytes; assay: LPS-induced cytokine release from primary human astrocytes, IL-1β; assay type: cell-based
# Description: (§1) The following study was undertaken to investigate whether contemplated compounds and (+)NLX affect LPS-induced release of the pro-inflammatory cytokine (IL-1β, IL-6 and TNF-α) release from primary human astrocytes. […]
# (§2) Primary astrocytes culture was prepared according to the provider's instructions (Lonza). The adherent astrocytes were trypsinized by 0.25% trypsin-EDTA, then collected and sub-cultured in 12-well plate (1.2 ml/well). […] Vehicle groups were pretreated with 0.1% DMSO only. Following addition of LPS, incubation continued for 24 hours. Culture medium was used as the blank and the levels of cytokines, TNF-α, IL-6 and IL-1β in 200 μl of culture medium were determined. Each well was sampled twice.
# (§3) Plates were washed 3 times with ice-cold 50 mM Tris HCl (pH 7.4) and incubated at 30° C. with 200 μl medium derived from the above mentioned conditions. Plates were washed 3 times with ice-cold 50 mM Tris HCl (pH 7.4) and incubated at 30° C. with 0.5 μg/well un-conjugated rabbit anti-anti-INF-α, -IL-6 and -IL-1β for 1 hour. After two 1 minute washes with 50 mM Tris HCl (pH 7.4), each well was incubated in 0.5 μg/well FITC-conjugated anti-rabbit IgG (human and mouse absorbed) for 1 hour at 30° C. Plates were washed twice with 200 μl ice-cold Tris HCl, pH 7.4 and the residual […] signals were determined by multimode plate reader, DTX880 (Beckman).
# [2] = test system: TNF-α release from primary human astrocytes; assay: LPS-induced cytokine release from primary human astrocytes, TNF-α; assay type: cell-based
# Description: as §1, §2, §3
# [3] = test system: IL-6 release from primary human astrocytes; assay: LPS-induced cytokine release from primary human astrocytes, IL-6; assay type: cell-based
# Description: as §1, §2, §3
# [4] = Mouse hot-water tail-flick test; assay type: in vivo; conditions: orally administered, 56 mg/kg
# Description: The mouse “tail flick” test was used to assay the relative antinociceptive activity of compositions containing a compound to be assayed. This assay was substantially that disclosed by Xie et al., 2005 J. Neurosci 25:409-416.
# The mouse hot-water tail-flick test was performed by placing the distal third of the tail in a water bath maintained at 52° C. The latency until tail withdrawal from the bath was determined and compared among the treatments. A 10 second cutoff was used to avoid tissue damage. Data are converted to percentage of antinociception by the following formula: (response latency−baseline latency)/(cutoff−baseline latency)×100 to generate dose-response curves. […] Relative potency was determined as a ratio of the A50 values.
# To assess tolerance to the antinociceptive effect, the compound was administered twice daily for 7 days at an A90 dose (dose that results in a 90% antinociceptive effect in the 52° C. warm-water tail-flick test), and the tail-flick test was performed daily after the a.m. dose. […] Assays were typically carried out separately using at least 32 and 56 mg/kg dosages, with some assays also separately carried out at 18 and 100 mg/kg.
# mu opiate receptor (MOR) = molecular target: T1, mu opiate receptor (MOR) (Rattus norvegicus, UniProt P33535); assay: MOR agonist activity, [35S]GTPγS binding assay using striatal membranes; assay type: biochemical; parameters: MOR agonist activity, [35S]GTPγS binding to Gαo: reference not given here; conditions: for % DAMGO (0.1 μM): 0.1 μM compound relative to DAMGO; for % DAMGO + BFNA: 1 μM compound + BFNA relative to DAMGO + BFNA; for % DAMGO (1 μM): 1 μM compound relative to DAMGO
# T1 construct: from tissue; host or cells: striatal membrane preparation (rat striatum)
# T1 sequence (P33535 whole entry): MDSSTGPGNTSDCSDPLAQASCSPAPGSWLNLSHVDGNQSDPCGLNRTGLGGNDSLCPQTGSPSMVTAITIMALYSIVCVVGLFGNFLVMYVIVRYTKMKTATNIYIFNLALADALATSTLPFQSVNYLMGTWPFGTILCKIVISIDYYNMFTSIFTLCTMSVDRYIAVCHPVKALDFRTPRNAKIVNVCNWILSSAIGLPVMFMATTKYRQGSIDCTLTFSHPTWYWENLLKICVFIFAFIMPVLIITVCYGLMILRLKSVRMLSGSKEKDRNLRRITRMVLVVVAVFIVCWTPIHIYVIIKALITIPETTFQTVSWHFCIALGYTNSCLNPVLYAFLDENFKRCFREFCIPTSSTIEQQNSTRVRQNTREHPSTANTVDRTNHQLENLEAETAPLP
# Description: To assess the mu opiate receptor (MOR) agonist activity of positive compounds from the FLNA screening, compounds were tested in a [^35S]GTPγS binding assay using striatal membranes.
# Striatal tissue was homogenized in 10 volumes of ice cold 25 mM HEPES buffer, pH 7.4, which contained 1 mM EGTA, 100 mM sucrose, 50 μg/ml leupeptin, 0.04 mM PMSF, 2 μg/ml soybean trypsin inhibitor and 0.2% 2-mercaptoethanol. The homogenates were centrifuged at 800×g for 5 minutes and the supernatants were centrifuged at 49,000×g for 20 minutes. The resulting pellets were suspended in 10 volume of reaction buffer, which contained 25 mM HEPES, pH 7.5, 100 mM NaCl, 50 μg/ml leupeptin, 2 μg/ml soybean trypsin inhibitor, 0.04 mM PMSF and 0.02% […].
# The resultant striatal membrane preparation (200 μg) was admixed and maintained (incubated) at 30° C. for 5 minutes in reaction buffer as above that additionally contained 1 mM MgCl2 and 0.5 nM [^35S]GTPγS (0.1 μCi/assay, PerkinElmer Life and Analytical Sciences) in a total volume of 250 μl and continued for 5 minutes in the absence or presence of 0.1-10 μM of an assayed compound of interest. The reaction was terminated by dilution with 750 μl of ice-cold reaction buffer that contained 20 mM MgCl2 and 1 mM EGTA and immediate centrifugation at 16,000×g for 5 minutes.
# The resulting pellet was solubilized by sonicating for 10 seconds in 0.5 ml of immunoprecipitation buffer containing 0.5% digitonin, 0.2% sodium cholate and 0.5% NP-40. Normal rabbit serum (1 μl) was added to 1 ml of lysate and incubated at 25° C. for 30 minutes. Nonspecific immune complexes were removed by incubation with 25 μl of protein A/G-conjugated agarose beads at 25° C. for 30 minutes followed by centrifugation at 5,000×g at 4° C. for 5 minutes. The supernatant was divided and separately incubated at 25° C. for 30 minutes with antibodies raised against Gαo proteins (1:1,000 dilutions).
# The immunocomplexes so formed were collected by incubation at 25° C. for 30 minutes with 40 μl of agarose-conjugated protein A/G beads and centrifugation at 5,000×g at 4° C. for 5 minutes. The pellet was washed and suspended in buffer containing 50 mM Tris-HCl, pH 8.0, and 1% NP-40. The radioactivity in the suspension was determined by liquid scintillation spectrometry. […] DAMGO (H-Tyr-D-Ala-Gly-N-MePhe-Gly-OH; 1 or 10 μM) was used as a positive control.
# [5] = molecular target: Bn-VAKGL pentapeptide of filamin A (FLNA) (Homo sapiens, UniProt P21333); assay: FITC-NLX-based FLNA screening assay (FLNA peptide binding assay); conditions: 10 nM FITC-NLX
# Description: The final assay volume is 100 μl.
# Compounds are tested in triplicate or quadruplicate.
# [6] = 10 pM compound 2 hours prior to LPS (1 μg/ml) and continued 24 hours
# [7] = 1 nM compound 2 hours prior to LPS (1 μg/ml) and continued 24 hours
# [8] = 100 nM compound 2 hours prior to LPS (1 μg/ml) and continued 24 hours
# [9] = 100 fM compound 2 hours prior to LPS (1 μg/ml) and continued 24 hours
# [10] = 0.1 μM compound, striatal membranes
# [11] = 1 μM compound + BFNA (1 μM β-funaltrexamine)
# [12] = 1 μM compound, striatal membranes
structure (smiles),measurement,setting,value
"C=CCN1CC[C@]23c4c5ccc(O)c4O[C@H]2C(=O)CC[C@]3(O)[C@H]1C5 [(+)Naloxone, (+)naloxone, reference compound]",IL-1β Average % (±SEM),[1]; [6],75.9 (4.5) %
same,IL-1β Average % (±SEM),[1]; [7],10.5 (4.8) %
same,TNF-α Average % (±SEM),[2]; [6],58.6 (2.0) %
same,TNF-α Average % (±SEM),[2]; [7],9.2 (6.0) %
same,IL-6 Average % (±SEM),[3]; [6],56.9 (4.4) %
same,IL-6 Average % (±SEM),[3]; [7],6.8 (4.3) %
O=S(=O)(c1ccc(F)cc1)N1CCOC12CCN(CC1CC1)CC2 [F-C0134],IL-1β Average % (±SEM),[1]; [6],78.0 (5.5) %
same,IL-1β Average % (±SEM),[1]; [7],77.7 (2.9) %
same,IL-1β Average % (±SEM),[1]; [8],73.2 (3.9) %
same,IL-1β Average % (±SEM),[1]; [9],73.3 (5.3) %
same,Maximum Antinociception (%),[4],93%
same,Time to Max.,[4],20 min
same,TNF-α Average % (±SEM),[2]; [6],75.7 (1.8) %
same,TNF-α Average % (±SEM),[2]; [7],77.4 (4.2) %
same,TNF-α Average % (±SEM),[2]; [8],75.4 (1.6) %
same,TNF-α Average % (±SEM),[2]; [9],77.0 (2.8) %
same,IL-6 Average % (±SEM),[3]; [6],78.8 (1.5) %
same,IL-6 Average % (±SEM),[3]; [7],78.2 (1.8) %
same,IL-6 Average % (±SEM),[3]; [8],76.3 (2.8) %
same,IL-6 Average % (±SEM),[3]; [9],81.3 (2.4) %
COc1ccc(S(=O)(=O)N2CCOC23CCN(C(=O)OC(C)(C)C)CC3)cc1 [Compound C0043],% DAMGO (0.1 μM),mu opiate receptor (MOR),103.8%
same,"MOR agonist activity, [35S]GTPγS binding to Gαo",mu opiate receptor (MOR); [10],175.4%
same,"MOR agonist activity, [35S]GTPγS binding to Gαo",mu opiate receptor (MOR); [11],83.3%
same,% DAMGO + BFNA,mu opiate receptor (MOR),501.8%
same,% DAMGO (1 μM),mu opiate receptor (MOR),110.9%
same,"MOR agonist activity, [35S]GTPγS binding to Gαo",mu opiate receptor (MOR); [12],242.6%
same,Percent inhibition of FITC-NLX binding,[5]; 0.01 μM compound,43.9%
same,Percent inhibition of FITC-NLX binding,[5]; 0.1 μM compound,51.3%
same,Percent inhibition of FITC-NLX binding,[5]; 1 μM compound,58.0%
O=[N+]([O-])c1ccc(S(=O)(=O)N2CCC3(CC2)NCCCO3)cc1 [Compound C0045],% DAMGO (0.1 μM),mu opiate receptor (MOR),88.3%
same,"MOR agonist activity, [35S]GTPγS binding to Gαo",mu opiate receptor (MOR); [10],149.2%
same,"MOR agonist activity, [35S]GTPγS binding to Gαo",mu opiate receptor (MOR); [11],105.3%
same,% DAMGO + BFNA,mu opiate receptor (MOR),634.3%
same,% DAMGO (1 μM),mu opiate receptor (MOR),109.1%
same,"MOR agonist activity, [35S]GTPγS binding to Gαo",mu opiate receptor (MOR); [12],238.8%
same,Percent inhibition of FITC-NLX binding,[5]; 0.01 μM compound,39.1%
same,Percent inhibition of FITC-NLX binding,[5]; 0.1 μM compound,48.9%
same,Percent inhibition of FITC-NLX binding,[5]; 1 μM compound,53.7%
"CN1CC[C@]23c4c5ccc(O)c4O[C@H]2[C@@H](O)C=C[C@H]3[C@H]1C5 [morphine, reference compound]",Maximum Antinociception (%),[4],43%
same,Time to Max.,[4],20 min
CN1CCC2(CC1)NC(=O)CN2Cc1ccccc1 [Compound C0104M],"MOR agonist activity, [35S]GTPγS binding to Gαo",mu opiate receptor (MOR); [10],188.2%
same,"MOR agonist activity, [35S]GTPγS binding to Gαo",mu opiate receptor (MOR); [11],143.8%
same,"MOR agonist activity, [35S]GTPγS binding to Gαo",mu opiate receptor (MOR); [12],238.9%
O=C1CN(Cc2ccccc2)C2(CCN(CC3CC3)CC2)N1 [Compound C0125M],"MOR agonist activity, [35S]GTPγS binding to Gαo",mu opiate receptor (MOR); [10],168.6%
same,"MOR agonist activity, [35S]GTPγS binding to Gαo",mu opiate receptor (MOR); [11],159.7%
same,"MOR agonist activity, [35S]GTPγS binding to Gαo",mu opiate receptor (MOR); [12],195.2%
O=[N+]([O-])c1ccc(S(=O)(=O)N2CCC3(CC2)NCCS3)cc1 [Compound C0044],"MOR agonist activity, [35S]GTPγS binding to Gαo",mu opiate receptor (MOR); [10],173.7%
same,"MOR agonist activity, [35S]GTPγS binding to Gαo",mu opiate receptor (MOR); [11],59.1%
same,"MOR agonist activity, [35S]GTPγS binding to Gαo",mu opiate receptor (MOR); [12],280.1%
